This is an account of results in patent US6482255B1, “Disazodyes for ink jet printing” (Avecia Limited, priority 1997, dated 2002).

A short description of this data set: Solubility of dye or dye composition in water. It is filed as physicochemical. As for the experimental part: The method of Example 1 was repeated except that the condensation reaction with ethanolamine in stage (iv) was stopped after 2.5 hours. The product was a mixture of Dye (A), Dye (B) and Dye (C) in relative proportions 43:35:22 by weight. This dye mixture has a solubility of 10% in water at 20° C. compared to a solubility of 3% for Dye (A) alone under the same conditions.
The ratio of Dyes (A), (B) and (C) in Example 4 may be varied by altering the time and temperature of the ethanolamine condensation step (Example 1, step (iv)). The solubility of a variety of dye compositions in water at 20° C. and pH 9.5 is shown in Table 2 below together with optical density, light fastness (ΔE after 50 hours) and wet-fastness results of prints prepared from these compositions. The prints were prepared by printing an ink formed by dissolving 2.5 parts of each composition in 97.5 parts of a mixture consisting of 88 parts water, 5 parts thiodiglycol, 5 parts 2-pyrrolidone and 2 parts Surfynol 465™ (a non-ionic surfactant) onto the substrate shown in the third column of Table 2 using a Canon 4300 ink jet printer.

In turn, `CNCCCNc1nc(NCCO)nc(Nc2ccc(/N=N/c3c(N)ccc4cc(S(=O)(=O)O)cc(O)c34)c(S(=O)(=O)O)c2)n1` [Dye (1)] returned a solubility in water (water at 20° C.) of 3%. Besides, where the note is “water at 20° C. and pH 9.5”, the “Solubility (%)” value is 3%.
